According to patent US5858327A, “Hydrazino-type N2 S2 radionuclide chelating compounds” (Resolutions Pharmaceuticals, Inc., priority 1996, dated 1999):
Where a name gives a salt, the structure may show the parent alone.

Test: In vivo distribution of 99mTc-labelled chelators in rats
Parameters: species or system male Wistar rats
Conditions: for GI tract accumulation/localization (share of the dose) / localization in urine / dose remaining in the blood / accumulation in the kidney: male Wistar rats; for GI tract accumulation/localization (share of the dose): 99mTc-labelled chelator 200 μL (200 μCi) i.v. tail vein, organs counted after 120 min images; for localization in urine / dose remaining in the blood / accumulation in the kidney: 99mTc-labelled chelator i.v. tail vein; for dose remaining in the blood: after 120 min images, blood volume assumed 8% body weight; for accumulation in the kidney: examples 1 and 2 approximately equal
Method: Approximately 1 mg of each chelator was dissolved in 200 μL saline or 200 μL ethanol:water (1:1) in a tube. To the tube was added 100-300 μL sodium ^99m Tc-pertechnetate (5-15 mCi), 100 μL phosphate buffer (0.25M, pH 7.4), and 200 μL of a solution containing 50 μg stannous chloride dihydrate and 40 mg sodium tartrate dihydrate. The tube was capped tightly and placed in a boiling water bath for 10 minutes.
After cooling, the reaction mixture was loaded onto a C-18 solid-phase extraction cartridge (Sep-Pak) which had been activated with 5 mL methanol and 5 mL 1 mM HCl. The cartridge was washed with 5 mM HCl and the eluate was collected in a test tube. The cartridge was then dried by forcing air through it. The product was eluted with 2 mL ethanol:water (1:1) and collected in a separate tube. The cartridge was placed in another tube and the three tubes were assayed in a radionuclide dose calibrator (ionization chamber). The yield was calculated as the activity in the ethanol:water eluate divided by the total activity in the three tubes under the assumption that the desired product was relatively lipophilic. A less lipophilic chelator would elute partially in the acid wash and the apparent yield would be low.
Distribution within rats of selected chelators and a reference chelator were determined using established protocols. Briefly, male Wistar rats (Charles River, 200 g) were anaesthetized with somnitol (40 to 50 mg/kg) and 200 μL of the labelled chelator (ie. 200 μCi) was injected intravenously via the tail vein. Serial whole-body scintigrams were acquired for first 10 minutes, After further images were obtained at 60 and 120 minutes, the rat was killed with anaesthesia and samples of organs (blood, heart, lung, liver, spleen, kidney, muscle, GI tract) were weighed and counted in either a well-type gamma counter or in a gamma dose calibrator. Dose calculations were made based on the assumption that rats weighed 200 g and that the blood volume constituted 8% body weight. All results were corrected for the residual dose in the tail.

| Compound | GI tract accumulation/localization (share of the dose) | localization in urine [%] | dose remaining in the blood | accumulation in the kidney | clearance from the blood (and other tissues), in words (rats, i.v.) | route of elimination (rats, i.v.) | GI tract excretion (in words) (in comparison with the N2S2 reference chelator, rats, i.v.) |
| --- | --- | --- | --- | --- | --- | --- | --- |
| N=C(NNC(=O)CSC(=O)c1ccccc1)NNC(=O)CSC(=O)c1ccccc1 [Example 2, N,N'-bis-(S-benzoylmercaptoacetyl)-1,3-diaminoguanidine hydrochloride] | 30% | 20 | about 10% | 7-14% |  |  |  |
| O=C(CNC(=O)CSC(=O)c1ccccc1)CNC(=O)CSC(=O)c1ccccc1 [Example 3, N,N'-bis-(S-benzoylmercaptoacetyl)-1,3-diaminoacetone] | 50% | 25 | 3% |  | fastest clearance from the blood and other tissues | mainly eliminated through the liver and GI tract |  |
| O=C(CSC(=O)c1ccccc1)NNC(=O)NNC(=O)CSC(=O)c1ccccc1 [Example 1, N,N'-bis(S-benzoylmercaptoacetyl)-carbohydrazide] | about 9% |  | about 14% | 7-14% |  |  | remarkably low |
